Consider 22 compounds from patent US11851419B2, “GLP-1R modulating compounds” (Gilead Sciences, Inc., priority 2020, dated 2023).

The term EC50 denotes the concentration that produces a half-maximal response. A low value points to greater potency.

T1 sequence (P43220 24-463): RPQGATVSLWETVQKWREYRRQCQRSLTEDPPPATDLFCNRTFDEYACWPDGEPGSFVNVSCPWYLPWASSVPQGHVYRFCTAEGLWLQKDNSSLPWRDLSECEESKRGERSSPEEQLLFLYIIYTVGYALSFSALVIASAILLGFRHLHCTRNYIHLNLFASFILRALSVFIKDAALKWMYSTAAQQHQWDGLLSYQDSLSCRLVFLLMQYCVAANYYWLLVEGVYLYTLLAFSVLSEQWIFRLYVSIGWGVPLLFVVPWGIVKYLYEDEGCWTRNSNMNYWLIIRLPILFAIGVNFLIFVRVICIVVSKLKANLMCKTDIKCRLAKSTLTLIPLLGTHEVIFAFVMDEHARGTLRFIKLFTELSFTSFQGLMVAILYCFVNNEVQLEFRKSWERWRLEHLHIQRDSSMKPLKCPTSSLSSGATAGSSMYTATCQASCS

The target in one test is T1, GLP-1R (Homo sapiens, UniProt P43220). Description: GLP-1R Activation - cAMP Assay 1 (cAMP increase in CHO cells stably expressing GLP-1R). The test is classed as cell-based. The settings on record: 10 point dose response, 30 minutes incubation at 37° C., cAMP Gs Dynamic Kit. The procedure:
GLP-1R Activation—cAMP Assay 1
GLP-1R activation by a compound of the present disclosure was quantified by measuring cAMP increase in CHO cells stably expressing GLP-1R (MultiSpan product #C1267-1a). The cells were harvested and plated in growth medium (DMEM/F-12 (Corning product #10-090-CV) supplemented with 10% FBS (HyClone product #SH30071-03), penicillin/streptomycin (Corning product #30-002CI) and 10 µg/ml puromycin (Gibco product #A11138-03)) at 1,000 cells/well in a 384-well plate (Greiner product #781080). The cells were then incubated overnight at 37° C., 5% CO2. The next day, the medium was removed and the cells were washed with DPBS (Corning product #21-031-CM) before adding the assay medium (HBSS, Corning product #21-023-CV) with 20 mM Hepes (Gibco product #15630-080) and 0. 1% BSA (Rockland Immunochemicals product #BSA-1000)). Following the medium change, the cells were incubated for 1 hour at 37° C., 5% CO2. The tested GLP-1 compound was added to the cells in a 10 point dose response followed by a 30 minutes incubation at 37° C., 5% CO2. cAMP concentration increase was then detected using Cisbio's cAMP Gs Dynamic Kit (product #62AM4PEC) according to the manufacturer's protocol. The response was plotted against the log of the agonist concentration and fitted to a sigmoidal equation to determine the EC50.
Turning to `COCCn1c(CN2CCC(c3cccc(OCc4ccc(C#N)cc4F)n3)CC2)nc2c(COC)cc(C(=O)O)cc21` [Example 27, 2-((4-(6-((4-cyano-2-fluorobenzyl)oxy)pyridin-2-yl)piperidin-1-yl)methyl)-1-(2-methoxyethyl)-4-(methoxymethyl)-1H-benzo[d]imidazole-6-carboxylic Acid], the response was half-maximal at 14.6 nM (EC50).

Another test has as its target T1, GLP-1R. Description: GLP-1R Activation - cAMP Assay 2 (cAMP increase in CHO cells stably expressing GLP-1R, pre-spotted agonists). The test is classed as cell-based. To be noted: assay buffer or 100% Human Plasma (not given), 30 minutes at 37° C. On the procedure:
GLP-1R Activation—cAMP Assay 2
GLP-1R activation by small molecule agonists is quantified by measuring cAMP increase in CHO cells stably expressing GLP-1R (MultiSpan product #C1267-1a). 50 nL of agonists are pre-spotted in a 10 point dose response onto 384-well plate (Corning product #CL3826) using the Labcyte Echo System. The cells are harvested and plated in assay buffer (HBSS (Corning product #21-023-CV) with 20 mM Hepes (Gibco product #15630-080) and 0.1% BSA (Rockland Immunochemicals product #BSA-1000)) or 100% Human Plasma (Innovative Research product #50-643-396) at 1,000 cells/well, 10 µL/well, onto the pre-spotted plates. The cells are then incubated for 30 minutes at 37° C., 5% CO2. cAMP concentration increase is then detected using Cisbio's cAMP Gs Dynamic Kit (product #62AM4PEC) according to the manufacturer's protocol. The response is plotted against the log of the agonist concentration and fitted to a sigmoidal equation to determine the EC50.
On to `Cn1ccc(-c2cc3nc(CN4CCC(c5cccc(OCc6ccc(C#N)cc6F)n5)CC4)n(C[C@@H]4CCO4)c3cc2C(=O)O)n1` [Example 30, 2-[[4-[6-[(4-cyano-2-fluoro-phenyl)methoxy]-2-pyridyl]-1-piperidyl]methyl]-6-(1-methylpyrazol-3-yl)-3-[[(2S)-oxetan-2-yl]methyl]benzimidazole-5-carboxylic Acid], for which the 50% effective concentration (EC50) was found to be 52.2 nM.
Still for that read-out and setting: to `N#Cc1ccc(COc2nc(N3CCN(Cc4nc5c(F)cc(C(=O)O)cc5n4C[C@@H]4CCO4)CC3)ccc2F)c(F)c1` [Example 22, 2-[[4-[6-[(4-cyano-2-fluoro-phenyl)methoxy]-5-fluoro-2-pyridyl]piperazin-1-yl]methyl]-7-fluoro-3-[[(2S)-oxetan-2-yl]methyl]benzimidazole-5-carboxylic Acid] belongs 0.22 nM; to `N#Cc1ccc(COc2nc(C3CCN(Cc4nc5c(F)cc(C(=O)O)cc5n4C[C@@H]4CCO4)CC3)ccc2F)c(F)c1` [Example 20, 2-[[4-[6-[(4-cyano-2-fluoro-phenyl)methoxy]-5-fluoro-2-pyridyl]-1-piperidyl]methyl]-7-fluoro-3-[[(2S)-oxetan-2-yl]methyl]benzimidazole-5-carboxylic Acid], 0.07 nM.
For the compound `CC(C)(C)OC(=O)Nc1cc2nc(CN3CCC(c4cccc(OCc5ccc(C#N)cc5F)n4)CC3)n(C[C@@H]3CCO3)c2cc1C(=O)O` [Example 24, 6-(tert-butoxycarbonylamino)-2-[[4-[6-[(4-cyano-2-fluoro-phenyl)methoxy]-2-pyridyl]-1-piperidyl]methyl]-3-[[(2S)-oxetan-2-yl]methyl]benzimidazole-5-carboxylic Acid], the half-maximal effective concentration (EC50) was found to be 0.51 nM.
`CC(C)(O)C#Cc1cc2nc(CN3CCC(c4cccc(OCc5ccc(C#N)cc5F)n4)CC3)n(C[C@@H]3CCO3)c2cc1C(=O)O` [Example 16, (S)-2-((4-(6-((4-cyano-2-fluorobenzyl)oxy)pyridin-2-yl)piperidin-1-yl)methyl)-5-(3-hydroxy-3-methylbut-1-yn-1-yl)-1-(oxetan-2-ylmethyl)-1H-benzo[d]imidazole-6-carboxylic Acid] showed an EC50 of 28.8 nM.
Same read-out and setting: to `Cn1ccc(-c2cc(C(=O)O)cc3c2nc(CN2CCC(c4cccc(OCc5ccc(C#N)cc5F)n4)CC2)n3C[C@@H]2CCO2)n1` [Example 18, 2-[[4-[6-[(4-cyano-2-fluoro-phenyl)methoxy]-2-pyridyl]-1-piperidyl]methyl]-7-(1-methylpyrazol-3-yl)-3-[[(2S)-oxetan-2-yl]methyl]benzimidazole-5-carboxylic Acid] belongs 0.98 nM; to `CC(C)(O)C#Cc1cc(C(=O)O)cc2c1nc(CN1CCN(c3cccc(OCc4ccc(C(N)=O)cc4F)n3)CC1)n2C[C@@H]1CCO1` [Example 13, 2-[[4-[6-[(4-carbamoyl-2-fluoro-phenyl)methoxy]-2-pyridyl]piperazin-1-yl]methyl]-7-(3-hydroxy-3-methyl-but-1-ynyl)-3-[[(2S)-oxetan-2-yl]methyl]benzimidazole-5-carboxylic Acid], 31.9 nM; to `CC(C)(O)C#Cc1cc(C(=O)O)cc2c1nc(CN1CCC(c3cccc(OCc4ccc(C#N)cc4F)n3)CC1)n2C[C@@H]1CCO1` [Example 12], 0.81 nM.
For the compound `COCCn1c(C[C@H]2CC[C@@H](c3cccc(OCc4ccc(C#N)cc4F)n3)CC2)nc2c(-c3ccn(C)n3)cc(C(=O)O)cc21` [Example 31, 2-(((1s,4s)-4-(6-((4-cyano-2-fluorobenzyl)oxy)pyridin-2-yl)cyclohexyl)methyl)-1-(2-methoxyethyl)-4-(1-methyl-1H-pyrazol-3-yl)-1H-benzo[d]imidazole-6-carboxylic Acid], the EC50 was 134 nM.
On the same count and under the same terms, to `COCCn1c(CN2CCN(c3cccc(OCc4ccc(C#N)cc4F)n3)CC2)nc2c(F)c(Nc3ccccc3)c(C(=O)O)cc21` [Example 3, 2-((4-(6-((4-cyano-2-fluorobenzyl)oxy)pyridin-2-yl)piperazin-1-yl)methyl)-4-fluoro-1-(2-methoxyethyl)-5-(phenylamino)-1H-benzo[d]imidazole-6-carboxylic acid] belongs 1.9 nM; to `COCCn1c(CN2CCC(c3cccc(OCc4ccc(C(N)=O)cc4F)n3)CC2)nc2c(F)c(Nc3ccccc3)c(C(=O)O)cc21` [Example 2, 2-((4-(6-((4-carbamoyl-2-fluorobenzyl)oxy)pyridin-2-yl)piperidin-1-yl)methyl)-4-fluoro-1-(2-methoxyethyl)-5-(phenylamino)-1H-benzo[d]imidazole-6-carboxylic Acid], 175 nM.
On to `N#Cc1ccc(COc2cccc(N3CCN(Cc4nc5c(-c6ccccn6)cc(C(=O)O)cc5n4C[C@@H]4CCO4)CC3)n2)c(F)c1` [Example 6], for which the midpoint of the response, the EC50, lay at 2.6 nM.
Compound `N#Cc1ccc(COc2cccc(C3CCN(Cc4nc5c(F)cc(C(=O)O)cc5n4C[C@@H]4CCO4)CC3)n2)c(F)c1` [Example 21] showed a concentration for a half-maximal effect (EC50) of 0.038 nM.
Still for that read-out and setting: the result for `N#Cc1ccc(COc2cccc(N3CCN(Cc4nc5c(F)cc(C(=O)O)cc5n4C[C@@H]4CCO4)CC3)n2)c(F)c1` [Example 23] reads 0.031 nM; that for `Cn1cc(-c2cc3nc(CN4CCC(c5cccc(OCc6ccc(C#N)cc6F)n5)CC4)n(C[C@@H]4CCO4)c3cc2C(=O)O)cn1` [Example 17, (S)-2-((4-(6-((4-cyano-2-fluorobenzyl)oxy)pyridin-2-yl)piperidin-1-yl)methyl)-5-(1-methyl-1H-pyrazol-4-yl)-1-(oxetan-2-ylmethyl)-1H-benzo[d]imidazole-6-carboxylic Acid], 13.3 nM.
Same read-out and setting: to `CC(C)(O)C#Cc1cc(C(=O)O)cc2c1nc(CN1CCN(c3cccc(OCc4ccc(C#N)cc4F)n3)CC1)n2C[C@@H]1CCO1` [Example 11, 2-[[4-[6-[(4-cyano-2-fluoro-phenyl)methoxy]-2-pyridyl]piperazin-1-yl]methyl]-7-(3-hydroxy-3-methyl-but-1-ynyl)-3-[[(2S)-oxetan-2-yl]methyl]benzimidazole-5-carboxylic Acid] belongs 1.7 nM; to `Cn1ccc(-c2cc(C(=O)O)cc3c2nc(CN2CCN(c4cccc(OCc5ccc(C#N)cc5F)n4)CC2)n3C[C@@H]2CCO2)n1` [Example 19, 2-[[4-[6-[(4-cyano-2-fluoro-phenyl)methoxy]-2-pyridyl]piperazin-1-yl]methyl]-7-(1-methylpyrazol-3-yl)-3-[[(2S)-oxetan-2-yl]methyl]benzimidazole-5-carboxylic Acid], 0.3 nM; to `COCCn1c(C[C@H]2CC[C@H](c3cccc(OCc4ccc(C#N)cc4F)n3)CC2)nc2c(-c3ccn(C)n3)cc(C(=O)O)cc21` [Example 32, 2-(((1r,4r)-4-(6-((4-cyano-2-fluorobenzyl)oxy)pyridin-2-yl)cyclohexyl)methyl)-1-(2-methoxyethyl)-4-(1-methyl-1H-pyrazol-3-yl)-1H-benzo[d]imidazole-6-carboxylic Acid], 10.6 nM.
Same read-out and setting: to `COCCn1c(CN2CCC(c3cccc(OCc4ccc(C#N)cc4F)n3)CC2)nc2c(F)c(Nc3ccccc3)c(C(=O)O)cc21` [Example 1, 2-((4-(6-((4-cyano-2-fluorobenzyl)oxy)pyridin-2-yl)piperidin-1-yl)methyl)-4-fluoro-1-(2-methoxyethyl)-5-(phenylamino)-1H-benzo[d]imidazole-6-carboxylic acid] belongs 15.1 nM.
In turn, `N#Cc1ccc(COc2cccc(C3CCN(Cc4nc5c(-c6ccccn6)cc(C(=O)O)cc5n4C[C@@H]4CCO4)CC3)n2)c(F)c1` [Example 5, Methyl 2-[[4-[6-[(4-cyano-2-fluoro-phenyl)methoxy]-2-pyridyl]-1-piperidyl]methyl]-3-[[(2S)-oxetan-2-yl]methyl]-7-(2-pyridyl)benzimidazole-5-carboxylic Acid] gave a concentration giving a half-maximal response (EC50) of 9.8 nM.
On the same count and under the same terms, to `Cn1ccc(-c2cc(C(=O)O)cc3c2nc(CN2CCC(c4ccnc(OCc5ccc(C#N)cc5F)n4)CC2)n3C[C@@H]2CCO2)n1` [Example 4, (S)-2-((4-(2-((4-cyano-2-fluorobenzyl)oxy)pyrimidin-4-yl)piperidin-1-yl)methyl)-4-(1-methyl-1H-pyrazol-3-yl)-1-(oxetan-2-ylmethyl)-1H-benzo[d]imidazole-6-carboxylic Acid] belongs 1.2 nM.
